Source: patent US8148392B2, “2-indolyl imidazo [4,5-d] phenanthroline derivatives and their use in the treatment of cancer” (Lorus Therapeutics Inc., priority 2005, dated 2012)
Read-outs that look alike come from different tables or passages of the source.

Tests used:
KLF4 [1] = experiment: KLF4 gene expression by RT-PCR, CCRF-CEM; format: cell-based, human; details: relative to vehicle control as 1
Source text: (§1) Gene expression levels of KLF4, induced by compounds of Formula I, were also examined on various cancer cell types by RT-PCR. Fold changes in KLF4 in compound-treated cells were expressed relative to KLF4 expression in vehicle control-treated cells of respective cell type as “1”. […] Additionally, xenografts of MDA-MB-435 implanted into mammary fat pads of female SCID mice have shown immunohistochemical staining consistent with melanocytic origin (Ellison G, Klinowska T, Westwood R F, Docter E, French T, Fox J C. (2002) Mol Pathol. 55(5): 294-299). The breast cancer cell line MDA-MB-435 may be expected to function differently than the other breast cancer cell lines.

H-460 lung cancer cells = experiment: XTT cell proliferation assay, H-460; format: cell-based, human; details: read-out: IC50 (cell growth inhibition)
Method: (§2) Cell growth inhibition IC50 (μM) by compounds of Formula I was tested on various cancer cell types by XTT cell proliferation assay. The growth inhibitory effects of the compounds of Formula I as shown below for the melanoma cell line SK-MEL-2 were reproducible by Lorus Therapeutics Inc.

KLF4 [2] = experiment: KLF4 gene expression by RT-PCR, PC-3; format: cell-based, human; details: PC-3, relative to vehicle control as 1
Source text: as §1

MOLT-4 leukemia cells = experiment: XTT cell proliferation assay, MOLT-4; format: cell-based, human; details: read-out: IC50 (cell growth inhibition)
Method: as §2

CCRF-CEM leukemia cells = experiment: XTT cell proliferation assay, CCRF-CEM; format: cell-based, human; details: read-out: IC50 (cell growth inhibition)
Method: as §2

KLF4 [3] = experiment: KLF4 gene expression by RT-PCR, DU-145; format: cell-based, human; details: DU-145, relative to vehicle control as 1
Source text: as §1

KLF4 [4] = experiment: KLF4 gene expression by RT-PCR, MDA-MB-435; format: cell-based, human; details: MDA-MB-435, relative to vehicle control as 1
Source text: as §1

[5] = system: MDA-MB-435 breast cancer cells; experiment: XTT cell proliferation assay, MDA-MB-435; format: cell-based, human; details: read-out: IC50 (cell growth inhibition)
Method: as §2

[6] = system: HCT-116 colon cancer cells; experiment: XTT cell proliferation assay, HCT-116; format: cell-based, human; details: read-out: IC50 (cell growth inhibition)
Method: as §2

[7] = system: human colon carcinoma HT-29 cells; experiment: XTT cell proliferation assay, HT-29; format: cell-based
Method: The ability of compounds of Formula I to inhibit the proliferation of human colon carcinoma HT-29 cells was tested as follows. HT-29 colon carcinoma cells used in this example and subsequent examples were maintained as a monolayer in a growth medium; McCoy's 5A modified medium (Sigma, St. Louis, Mo.), supplemented with 2 mM L-glutamine (Gibco, Grand Island, N.Y.), 10% fetal bovine serum (FBS) (Multicell, WISENT Inc. St-Bruno, QC), antibiotic-antimycotic (Multicell), at 37° C. in a 5% CO2-humidified incubator. Cells were transferred onto 150 mm tissue culture plates and grown until sub-confluency (70-80%) prior to their use. The in vitro antiproliferative activity of compounds was evaluated by incubating the cells with varying concentrations of the compounds as shown in Table 1 for 6-7 days. The efficacy of these compounds in this cell proliferation assay was measured based in the ability of live cells to reduce the tetrazolium salt XTT to orange colored compounds of formazan (XTT cell proliferation kit II, Roche Applied Science, Montreal, QC).
The ability of compounds of Formula I to inhibit the proliferation of human colon carcinoma HT-29 cells was tested as described above in Example 13.
as §2

KLF4 [8] = experiment: KLF4 gene expression by RT-PCR, MDA-MB-231; format: cell-based, human; details: MDA-MB-231, relative to vehicle control as 1
Source text: as §1

KLF4 [9] = experiment: KLF4 gene expression by RT-PCR, H-460; format: cell-based, human; details: H-460, relative to vehicle control as 1
Source text: as §1
Expressions of KLF2, 4 and 6 genes in H-460 cells, treated with vehicle control or 2.5 μM compound 3 or compound 7, were measured by RT-PCR. Gene expression was presented relative to respective gene expression in vehicle control-treated group as “1”.

[10] = system: MDA-MB-231 breast cancer cells; experiment: XTT cell proliferation assay, MDA-MB-231; format: cell-based, human; details: read-out: IC50 (cell growth inhibition)
Method: as §2

KLF4 [11] = experiment: KLF4 gene expression by RT-PCR, HCT-116; format: cell-based, human; details: HCT-116, relative to vehicle control as 1
Source text: as §1

KLF4 [12] = experiment: KLF4 gene expression by RT-PCR, MOLT-4; format: cell-based, human; details: MOLT-4, relative to vehicle control as 1
Source text: as §1

SK-MEL-2 melanoma cells = experiment: XTT cell proliferation assay, SK-MEL-2; format: cell-based, human; details: read-out: IC50 (cell growth inhibition)
Method: as §2

[13] = system: PC-3 prostate cancer cells; experiment: XTT cell proliferation assay, PC-3; format: cell-based, human; details: read-out: IC50 (cell growth inhibition)
Method: as §2

KLF4 [14] = experiment: KLF4 gene expression by RT-PCR, HT-29; format: cell-based, human; details: HT-29, relative to vehicle control as 1
Method: To determine whether compounds of Formula I can chelate zinc in cells, the effect of compound 3 on the expression level of a zinc-regulated gene, metallothionein 1A (MT1A), in human colon carcinoma HT-29 cells, was determined. HT-29 cells, 1×10^6 cells in 10 mL volume of the growth medium were seeded in 100 mm dishes and incubated overnight at 37° C. The medium was removed and replaced with the growth medium containing 35 μM ZnCl2, 1 μM or 4 μM TPEN (NNNN-tetrakis(2-pyridyl-methyl)ethylenediamine), or 1 μM or 4 μM compound 3, or 0.1% DMSO vehicle control. After incubation for 16 hours, the cells were detached by trypsinization, collected by centrifugation and washed once with PBS. Total RNA was extracted by using TRIZOL (Invitrogen, Life Technologies, Carlsbad, Calif.), following manufacturer's instruction, and the level of MT1A mRNA was measured by real time PCR using the comparative CT method as follows. First strand cDNA was synthesized from 200 ng total RNA in Biometra Tpersonal Thermal Cycler (Abgene, UK), using pd(N)6 random hexamer (Amersham Biosciences, Piscataway, N.J.) and SuperScript™ II Reverse Transcriptase kit (Invitrogen) by following manufacturer's protocol. Real-time PCR was performed in ABI Prism 7000 Sequence Detection System (Applied Biosystems Inc., ABI, Foster City, Calif.), using 5 μL of cDNA synthesized by above-mentioned procedure and respective TaqMan® Gene Expression Assays (ABI) by following ABI TaqMan® Universal PCR master mix protocol.
The ability of compounds of Formula I to modulate the mRNA level of a transition metal-regulated tumour suppressor gene was determined in vitro as follows. Compound 3 was tested to determine its ability to increase the expression of zinc-regulated tumour suppressor KLF4 mRNA in colon carcinoma HT-29 cells. […] HT-29 cells were incubated for 16 hours with DMSO as a vehicle control, 35 μM ZnCl2, 1 μM or 4 μM of compound 3, or 1 μM or 4 μM TPEN for 16 hours and mRNA was extracted from the cells as described in Example 19. The expression of KLF4 mRNA was analyzed by real-time polymerase chain reaction using the comparative CT method also as described in Example 19. Compound 3 induced the expression of KLF4 mRNA (approximately 8-fold) in HT-29 cells compared with HT-29 cells treated with vehicle alone (See FIG. 8).
as §1
The change in gene expression of KLF4 upon zinc depletion following compound 3 treatment was determined by RT-PCR as follows. HT-29 cells were treated with 1 μM compound 3 for the indicated time (FIG. 39A) or HT-29 cells were treated with 1 μM compound 3, 35 μM ZnCl2 or compund 3 and ZnCl2 together for 16 hr (FIG. 39B). Total RNA was extracted and gene expression level was determined by RT-PCR.
Fold change in KLF4 gene expression was presented relative to KLF4 expression in non-specific siRNA-transfected cells treated with vehicle control.

[15] = system: DU-145 prostate cancer cells; experiment: XTT cell proliferation assay, DU-145; format: cell-based, human; details: read-out: IC50 (cell growth inhibition)
Method: as §2

KLF4 [16] = experiment: KLF4 gene expression by RT-PCR, SK-MEL-2; format: cell-based, human; details: SK-MEL-2, relative to vehicle control as 1
Source text: as §1

IC50 (H-460 lung cancer cells): 400 nM | IC50 (MOLT-4 leukemia cells): 200 nM | IC50 (CCRF-CEM leukemia cells): 300 nM | IC50 [5]: 500 nM | IC50 [6]: 300 nM | IC50 ([7]; HT-29, XTT, as Example 13, Table 7): 0.2 µg/mL | IC50 ([7]; HT-29 colon, Table 8, read-out: IC50 (cell growth inhibition)): 200 nM | IC50 [10]: 3700 nM | IC50 (SK-MEL-2 melanoma cells): 170 nM | IC50 [13]: 320 nM | IC50 [15]: 400 nM
Compound: CC(C)(C)c1ccc2[nH]c(C(C)(C)C)c(-c3nc4c5cccnc5c5ncccc5c4[nH]3)c2c1 [Compound 63]
KLF4 (gene fold increase) (KLF4 [1]): 76.37 fold | KLF4 (gene fold increase) (KLF4 [2]): 1.34 fold | KLF4 (gene fold increase) (KLF4 [3]): 12.95 fold | KLF4 (gene fold increase) (KLF4 [4]): 7.67 fold | KLF4 (gene fold increase) (KLF4 [8]): 1.77 fold | KLF4 (gene fold increase) (KLF4 [9]): 1.55 fold | KLF4 (gene fold increase) (KLF4 [11]): 2.82 fold | KLF4 (gene fold increase) (KLF4 [12]): 223.63 fold | KLF4 (gene fold increase) (KLF4 [14]): 5.98 fold | KLF4 (gene fold increase) (KLF4 [16]): 5.46 fold
